Results from paper PMC4838890, “Dynamic and flexible H3K9me3 bridging via HP1β dimerization establishes a plastic state of condensed chromatin” (Nature Communications, 2016).

Columns and labels:
H3K9me3 oligonucleosomes [1] = assay: Chromatin coprecipitation, H3K9me3 oligonucleosomes; format: binding, Xenopus laevis; settings: 6.7 nM oligonucleosomes, 1 μM protein, 150 mM NaCl, 5 mM MgCl2, 1 h on ice
Description: 6.7 nM oligonucleosomes were incubated with 1 μM recombinant protein in 100 μl binding buffer (10 mM triethanolamine (pH 7.5), 150 mM NaCl, 5 mM MgCl2, 0.1 mM EDTA, 0.1% (v/v) Triton-X100) for 1 h on ice. Precipitated chromatin complexes were recovered by centrifugation at 16,100g for 30 min at 4°C. Pellets were washed once with 0.5 ml binding buffer and centrifuged for 15 min at 4 °C. Precipitated material was resuspended in 10 μl 1 × SDS loading buffer and boiled for 5 min before running on SDS–PAGE.
Supplementary Table 1: Summary of conditions used in the different experiments of this study.
experiment result modification template Temp. [NaCl] [MgCl2]
chromatin Fig. 1e,f; Fig. S1f-h; H3K9me3 oligo- 4 150 5

mouse fibroblasts = assay: Subnuclear distribution of EGFP fusion proteins; format: cell-based; settings: GFP fusions transiently expressed, n >100
Excerpt: Supplementary Figure 11: Subnuclear distribution of hHP1 β wild type and mutant proteins .
(a) The indicated proteins fused to EGFP were transiently expressed in mouse fibroblast cells.
Representative fluorescence confocal images are shown. DNA was stained with DAPI. Scale bar […]
(b) Quantification of the subnuclear distribution of the hHP1β WT and mutant proteins analyzed as in ( a) by visual inspection. EGFP signal in each transfected cell was categoriz ed into ‘dotted’ (see WT distribution in panel a) or ‘diffuse’ (see distribution of I161A in panel a). n >100 for each condition.
(1 picture or pasted object on this page, not shown here)

[2] = tested on: chromatin reporter array in U2OS cells; assay: Chromatin reporter array (LacO) unfolding; format: cell-based; settings: doxycycline 1 μg ml^−1 24 h, LacI-tethered, n>300
Excerpt: Figure 7 hHP1β dimerization is required for maintaining condensed cellular chromatin states. (a) Schematic diagram of the transgene system used to test chromatin compaction effects of hHP1β. A tandem array of the construct has been integrated into the genome of U2OS mammalian cells. Dox, doxycycline; rtTA, reverse tetracycline-controlled TET-VP16 transactivator, whose binding to tetracycline responsive elements (RE) is activated by doxycycline. (b) Together with mCherry-LacI, the indicated fusion proteins were transiently expressed in U2OS cells containing the chromatin reporter array as described in a. Representative confocal images in the absence or after induction of transcription from the array with doxycycline (Dox) are shown. DNA was stained with DAPI. Inlets show enlarged chromatin reporter array; scale bar, 10 μm. (c) Quantification of the results shown in b together with results of similar experiments using additional hHP1β mutant proteins. Averages of three independent experiments are plotted; error bars represent s.d.; n>300 for each condition; asterisks represent P<0.05 according to Student's t-test.
U2OS 2-6-3 CLTon cells[38] were kindly provided by Dr Supriya Prasanth (University of Illinois, IL, USA) and maintained in DMEM (high glucose+GlutaMax) (GIBCO/Invitrogen, Darmstadt, Germany) supplemented with 10% (v/v) TET system approved fetal bovine serum (Clontech, Saint-Germain-en-Laye, France), 50 μg ml^−1 hygromycin (Carl Roth, Karlsruhe, Germany) and 200 μg ml^−1 G418 (Clontech, Saint-Germain-en-Laye, France). For fluorescence microscopy, cells were grown on coverslips in a six-well plate without antibiotics. 500 ng plasmid DNA was transfected using Lipofectamine LTX and Plus reagent (Invitrogen, Darmstadt, Germany). 20 h post transfection, cells were treated with 1 μg ml^−1 doxycycline for 24 h for induction of rtTA expression. Cells were washed twice with PBS and fixed with 3.7% (v/v) formaldehyde/PBS for 10 min at RT. […] P values (according to Student's t-test) were calculated using GraphPad QuickCals (GraphPad, CA, USA).

H3K9me3 oligonucleosomes [3] = assay: Chromatin sedimentation (clustering), H3K9me3 oligonucleosomes; format: biochemical, Xenopus laevis; settings: 150 mM NaCl, saturating protein (5 μM) or titration, EtBr fluorescence, n=3
Description: Figure 3 hHP1β clusters oligonuclesomal arrays in dependence of H3K9me3. (a) Oligonucleosomes (2.5 nM) were incubated with increasing concentrations of hHP1β WT or I161A at 150 mM NaCl. DNA remaining in the supernatant after centrifugation was incubated with EtBr and measured by fluorescence reading. Data were normalized to amounts in absence of added protein. Averages of three independent experiments are plotted; error bars represent s.d.; n=3. (b) Analysis of the hydrodynamic radius of oligonucleosomes (10 nM; DNA labelled with ATTO 610) in the presence of increasing concentrations of hHP1β WT or I161A by FCS at 150 mM NaCl. For details on experimental setup see Supplementary Fig. 3. Error bars represent s.d.; n=3. (c) Oligonucleosomes were reconstituted after mixing H3K9me0 and H3K9me3 octamers at different ratio. Chromatin precipitation analysis at 150 mM NaCl was carried out with hHP1β WT at saturating concentration. Data are presented as in a. (d) Precipitation behaviour of oligonucleosomes (2.5 nM) was analysed at different concentrations of NaCl with hHP1β WT at saturating concentration. Data are presented as in a. (e) H3K9me3-containing chromatin was reconstituted using wild-type core histones or tailless H2A, H2B or H4. Oligonucleosomes (2.5 nM) were incubated with increasing concentrations of hHP1β WT at 150 mM NaCl. Data are presented as in a. (f) Chromatin coprecipitation of hHP1β with H3K9me3-containing oligonucleosomes reconstituted with wild-type or tailless core histones at the indicated concentrations of MgCl2. Precipitated material was analysed by western blotting. The region of the western blot membrane of the experiment at 7.5 mM MgCl2 containing histones was stained with Ponceau. (g) Oligonucleosomes at 50 mM NaCl were incubated with hHP1β WT or I161A. Complexes were fixed with 0.05% (v/v) glutaraldehyde, spotted on mica surfaces and analysed by scanning force microscopy. Control, no protein added; scale bar, 100 nm. (h) Quantification of results representatively shown in g according to the classification on the top: A, extended; B, partially condensed; C, fully condensed; D; aggregates; n>50 for each condition.
For saturating conditions, 2.7 nM oligonucleosomes were incubated with 5 μM hHP1β proteins in 100 μl sedimentation buffer (10 mM triethanolamine (pH 7.5), 150 mM NaCl, 0.1 mM EDTA) for 1 h on ice. For non-saturating conditions, 3 μM recombinant proteins were used and the NaCl concentration in the sedimentation buffer was lowered to 100 mM. After incubation, 40 μl per sample was placed into a well of a 96-well plate and kept as ‘input'. The rest was centrifuged at 16,100g for 30 min at 4°C. 40 μl supernatant was carefully removed and placed into a 96-well plate (‘output'). For quantification of chromatin DNA, the input and output samples were incubated with 40 μl 0.5 μg ml^−1 ethidium bromide and fluorescence was measured on a Plate CHAMELEON II fluorescence plate reader (Hidex, Turku, Finland) using a 360 nm (±5 nm) excitation filter and a 612 nm (±5 nm) emission filter. For each sample the ratio of DNA concentrations after and before centrifugation (output/input) was calculated.
Supplementary Table 1: Summary of conditions used in the different experiments of this study. experiment result modification template Temp. [NaCl] [MgCl2] […]
chromatin Fig. 1e,f; Fig. S1f-h; H3K9me3 oligo- 4 150 5 coprecipitation Fig. S2b nucleosomes
Fig. S7d,f; Fig.S9c nucleosomes […]
chromatin sedimentation Fig. 4a; H3K9me3 oligo- 4 150 0
(single point) Fig. S3b nucleosomes […]
chromatin sedimentation. oligo-(titration) Fig. 3a H3K9me3 nucleosomes 4 150 0 […]
crosslinking Fig. S6e,f nucleosomes […]
crosslinking Fig. S7a,b nucleosomes
EMSA Fig. 1g; Fig. 5c; n//a RT 100 5
1Preincubation of oligonucleosomes and h HP1β was performed at 4 °C . Measurements wer e carried out at the in dicated te mperature.
2in increments o f 0 .5 mM
3MgCl2 was added at the end of incubation to coprecipitate oligonucleosomes a nd bound hHP1β.

H3K9me3 peptide = biological target: T1, H3K9me3 peptide (Homo sapiens, UniProt P68431); assay: SPR, immobilized H3K9me3 peptide; format: binding; settings: 0.1 µM hHP1β WT bound, 950 RU; 1 or 20 μM free H3K9me3, 20 μM H3K9me0 peptide
T1 construct: C-terminally biotinylated histone H3 peptides (aa 1–20)
Description: SPR measurements were performed on a Biacore 2000 instrument (GE Healthcare, Buckinghamshire, UK) at 298 K in 10 mM triethanolamine (pH 7.5), 150 mM NaCl, 0.1 mM EDTA, 1 mM DTT, 0.005% (v/v) Tween-20. Biotinylated ligands were immobilized on streptavidin-coated sensor chips SA (GE Healthcare, Buckinghamshire, UK). Before immobilization, sensor chips were conditioned as described by the manufacturer. To obtain low surface densities (5–24 RU), 5 nM biotinylated H3 peptide was injected at a low rate of 10 μl min^−1 using varying contact times. High surface densities (>700 RU) were prepared by injecting […] peptide (10 μl min^−1) until the SA surface was saturated. Peptide-containing chips were regenerated by applying three short pulses of 0.05% (w/v) SDS followed by an injection of 1.5 M NaCl for baseline stabilization. For binding assays, hHP1β proteins were injected at […] (serial twofold dilutions) for 2 min (30 μl/min). Dissociation was recorded for up to 5 min. A streptavidin surface without ligands served as reference. In addition, blank runs were performed for double referencing. Data evaluation was performed by steady-state analysis assuming a Langmuir 1:1 binding model using BIAevaluation 4.1 and Prism 5.04 (GraphPad, CA, USA) software. Binding to the unmodified peptides was analysed with maximum binding (RUmax) set to the corresponding values obtained with the modified peptides.
Figure S8 Hiragami-Hamada et al.
20 30 one site-specific 20 30 one site-specific […]
time [s] concentration [ μM] time [s] concentration [ μM]
40 two site-specific 40 one site-specific […]
time [s] concentration [ μM]
Supplementary Figure 8: hHP1β binds nucleosomes as dimer.
(a) Dynamic light scattering (DLS) analysis of recombinant hHP1β WT (blue) and I161A (red).
(b) SPR response traces of injection of hHP1β WT into Biacore cells containing biotinylated H3K9me3-peptide immobilized on a sensory chip via covalently coated streptavidin. Immobilized peptide was at 24
RU. Injection series are from 0.024 to 50 µM protein concentration.
(c) Blot of signal over concentration of the titration in (b) to deduce an apparent Kd value. Best fitting was achieved by one site-specific binding model.
(d ) Same analysis as in (b) but with hHP1β I161A.
(e) Blot of signal over concentration of the titration in (d) to deduce an apparent Kd value. […]
(also on this page, place not known: dimer . hHP1 β H3K9me3 - se nsory ( b) site -specific ( b) hHP1 β ( d) site -specific hHP1 β modifi ed H3K9me3 -mononucleosomes H3 -tails -30 -50 -8 -4 200 -10 110 -50 -10 -30 [μM] [μM] -10 190 150 -10 110 200 -10 110 μl/min μl/min μl/min -50 150 response [RU] response [RU] response [RU] response [RU] response [RU] [μM] 10 50 response [RU]40 0 0 [μM] 10 30 50 response [RU] 40 0 0 40 [μM] 10 30 50 response [RU] 140 40 0 120 0 40 response [RU] response [RU] response [RU] Kd Kd μM Kd μM 0.8 0.6 0.4 0.2 0 1 1.0 0.8 0.6 0.4 0.2 0.0 mass fraction)

| Substance | recovery with H3K9me3 oligonucleosomes (H3K9me3 oligonucleosomes [1]) | subnuclear distribution (mouse fibroblasts) | unfolding of the array on activation [2] | chromatin clustering/aggregation, H3K9me3 (H3K9me3 oligonucleosomes [3]) | competition of residual hHP1β WT SPR signal by free H3 peptide (H3K9me3 peptide) |
| --- | --- | --- | --- | --- | --- |
| hHP1β W42A: CD point mutant of hHP1β, abolishing H3K9me3 binding | loss of recovery of hHP1β with H3K9me3 oligonucleosomes | diffuse distribution | behaved very similar to the WT protein | failed to cluster oligonucleosomes | – |
| H3K9me3 peptide: free H3K9me3 tail peptide used as competitor [reference compound] | – | – | – | – | competed specifically |
| H3K9me0: free unmodified H3 tail peptide used as competitor [reference compound] | – | – | – | – | competed specifically with free H3K9me3 peptide ligand but not H3K9me0 |
